Test results from PMC12915296 (Journal of medicinal chemistry, 2025).
Where two headings read alike, the source gives them in different places.

Tests used:
[1] = target: T1, hCB2 receptor (Homo sapiens, UniProt P34972); assay: Inhibition of forskolin-stimulated cAMP accumulation, 3xHA-hCB2-CHO cells; format: cell-based; conditions: for Emax: read-out: hCB2 receptor cAMP Emax
[2] = target: T1, hCB2 receptor; assay: β-arrestin 2 recruitment assay; format: cell-based; conditions: for Emax: read-out: hCB2 receptor β-Arrestin 2 Emax
[3] = tested on: Adult male CD1 mice; assay: Ring test for catalepsy; format: in vivo; conditions: for immobility time in the ring test vs vehicle: i.p., mice, overall
[4] = tested on: Adult male CD1 mice; assay: Measurement of rectal temperature; format: in vivo; conditions: for body temperature vs vehicle: i.p., mice
[5] = tested on: Adult male CD1 mice; assay: Tail-flick; format: in vivo; conditions: for tail-flick latency in the tail-immersion test vs vehicle: mice, overall
[6] = tested on: Adult male CD1 mice; assay: CFA-induced inflammatory pain model, mechanical paw withdrawal thresholds; format: in vivo; conditions: AM251 5 mg/kg i.p. alone, overall
[7] = target: T2, hCB1 receptor (Homo sapiens, UniProt P21554); assay: cell-based; conditions: for Emax: read-out: hCB1 receptor cAMP Emax, normalized to maximum CP-55,940 = 100
[8] = target: T2, hCB1 receptor; assay: cell-based; conditions: read-out: hCB1 receptor β-Arrestin 2 Emax
[9] = target: rCB1 receptor (Rattus norvegicus, UniProt P20272); assay: rCB1 radioligand binding assay, [3H]CP-55,940 competition; conditions: for increase in binding affinity for CB1 compared to lead AMG315: ratio of Ki values
[10] = target: T1, hCB2 receptor; assay: hCB2 radioligand binding assay, [3H]CP-55,940 competition, HEK293 membranes; conditions: for higher affinity for CB2 than the lead compound AMG315: ratio of Ki values

T1 sequence (P34972 whole entry): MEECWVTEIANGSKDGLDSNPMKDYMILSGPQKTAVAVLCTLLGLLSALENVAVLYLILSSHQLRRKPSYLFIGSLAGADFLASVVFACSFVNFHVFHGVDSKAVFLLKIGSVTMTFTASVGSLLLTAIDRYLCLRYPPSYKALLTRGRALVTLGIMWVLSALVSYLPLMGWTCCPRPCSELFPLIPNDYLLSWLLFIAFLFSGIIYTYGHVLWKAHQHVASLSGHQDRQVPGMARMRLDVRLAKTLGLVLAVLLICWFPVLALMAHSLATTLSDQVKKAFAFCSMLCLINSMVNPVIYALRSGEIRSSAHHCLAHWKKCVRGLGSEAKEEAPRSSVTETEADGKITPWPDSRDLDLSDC
T2 sequence (P21554 whole entry): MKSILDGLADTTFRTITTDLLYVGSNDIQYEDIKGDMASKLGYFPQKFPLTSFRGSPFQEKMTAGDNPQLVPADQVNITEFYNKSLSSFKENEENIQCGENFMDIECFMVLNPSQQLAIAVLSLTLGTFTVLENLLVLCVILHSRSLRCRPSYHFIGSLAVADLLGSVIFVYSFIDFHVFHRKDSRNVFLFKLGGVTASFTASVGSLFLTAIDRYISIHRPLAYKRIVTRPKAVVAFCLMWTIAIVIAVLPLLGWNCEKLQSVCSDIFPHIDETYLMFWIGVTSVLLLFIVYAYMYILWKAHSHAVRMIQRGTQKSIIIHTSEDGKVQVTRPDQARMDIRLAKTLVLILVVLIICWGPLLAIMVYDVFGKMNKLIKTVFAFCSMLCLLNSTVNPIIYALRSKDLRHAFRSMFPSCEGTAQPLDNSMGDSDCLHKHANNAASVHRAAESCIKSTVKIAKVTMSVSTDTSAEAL
rCB1 receptor, sequence (P20272 whole entry): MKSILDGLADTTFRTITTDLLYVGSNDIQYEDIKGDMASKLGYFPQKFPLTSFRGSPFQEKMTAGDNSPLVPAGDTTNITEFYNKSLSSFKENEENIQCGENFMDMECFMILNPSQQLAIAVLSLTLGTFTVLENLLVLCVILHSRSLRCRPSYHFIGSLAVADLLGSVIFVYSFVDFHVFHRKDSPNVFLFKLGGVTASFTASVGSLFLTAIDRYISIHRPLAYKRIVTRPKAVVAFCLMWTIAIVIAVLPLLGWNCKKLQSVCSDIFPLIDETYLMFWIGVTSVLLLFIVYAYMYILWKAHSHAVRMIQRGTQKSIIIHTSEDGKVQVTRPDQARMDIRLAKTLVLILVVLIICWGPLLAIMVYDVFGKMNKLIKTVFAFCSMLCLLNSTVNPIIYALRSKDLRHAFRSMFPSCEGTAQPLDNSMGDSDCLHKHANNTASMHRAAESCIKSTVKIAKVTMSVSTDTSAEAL

CCCCC/C=C\C/C=C\C/C=C\C/C=C\CCCC(=O)NCCO [AEA, N-arachidonoylethanolamide, reference compound]
Emax [1]: 27%
Emax [2]: 36%

Cc1c(C(=O)NN2CCCCC2)nn(-c2ccc(Cl)cc2Cl)c1-c1ccc(I)cc1 [AM251, 1-(2,4-dichlorophenyl)-5-(4-iodophenyl)-4-methyl-N-1-piperidinyl-1H-pyrazole-3-carboxamide, reference compound]
effect of pretreatment on AM12814-induced catalepsy in the ring test ([3]; AM251 5 mg/kg ip before AM12814 1 mg/kg ip): blocked
effect of pretreatment on hypothermic effect of AM12814 ([4]; AM251 5 mg/kg i.p. before AM12814 1 mg/kg i.p.): abolished
effect of pretreatment on tail-flick antinociception of AM12814 ([5]; AM251 5 mg/kg i.p. before AM12814 3 mg/kg i.p.): reduced the overall antinociceptive efficacy
ipsilateral paw withdrawal thresholds, AM251-Veh vs Veh–Veh [6]: modestly elevated

CCCCC/C=C\[C@H](C)/C=C\C/C=C\C/C=C\CCCC(=O)N[C@H](C)CO [AMG315, (R)-N-(1-Methyl-2-hydroxyethyl)-13-(S)-methyl-arachidonamide, reference compound]
Emax [7]: 80.5%
Emax [8]: 38%
Emax [1]: 18%
Emax [2]: 36%

C[C@H](/C=C\C/C=C\C/C=C\CCCC(=O)N[C@H](C)CO)/C=C\CCCCC(F)(F)F [Compound 12, (S,5Z,8Z,11Z,14Z)-20,20,20-Trifluoro-N-((R)-1-hydroxypropan-2-yl)-13-methylicosa-5,8,11,14-tetraenamide]
Ki [9]: 0.7 nM
increase in binding affinity for CB1 compared to lead AMG315 [9]: 10 fold
Ki [10]: 3.4 nM
higher affinity for CB2 than the lead compound AMG315 [10]: 52–80 fold
efficacy for the cyclase pathway relative to β-arrestin 2 recruitment in CB1 ([7]; Emax cAMP vs Emax β-arrestin 2): 3 fold
hCB1 receptor cAMP Emax ([7]; normalized to maximum CP-55,940 = 100): 67.5%
Emax [7]: 67%
Emax [8]: 22%
EC50 [1]: 22 nM
Emax [1]: 29%
EC50 [2]: 5.6 nM
Emax [2]: 28%
immobility time in the ring test vs vehicle ([3]; 0.3 mg/kg): did not differ reliably from vehicle overall
immobility time in the ring test vs vehicle ([3]; 1 mg/kg): increased immobility time
immobility time in the ring test vs vehicle ([3]; 3 mg/kg): increased immobility time
body temperature vs vehicle ([4]; 0.3 mg/kg): did not alter body temperature at any postinjection time point
body temperature vs vehicle ([4]; 1 mg/kg): reducing body temperature
body temperature vs vehicle ([4]; 3 mg/kg): reducing body temperature
earliest time of reduced body temperature postinjection ([4]; 1 or 3 mg/kg): 10 min
tail-flick latency in the tail-immersion test vs vehicle ([5]; 1 mg/kg, i.p.): increased tail-flick latency
tail-flick latency in the tail-immersion test vs vehicle ([5]; 3 mg/kg, i.p.): increased tail-flick latency
tail-flick latency in the tail-immersion test vs vehicle ([5]; low dose, 0.1 mg/kg i.p.): increased tail-flick latency

C[C@H](/C=C\C/C=C\C/C=C\CCCC(=O)N[C@H](C)CO)/C=C\CCCCCBr [Compound 15, (S,5Z,8Z,11Z,14Z)-20-Bromo-N-((R)-1-hydroxypropan-2-yl)-13-methylicosa-5,8,11,14-tetraenamide]
Ki [9]: 1.1 nM
increase in binding affinity for CB1 compared to lead AMG315 [9]: 2–7 fold
Ki [10]: 5.3 nM

C[C@H](/C=C\C/C=C\C/C=C\CCCC(=O)N[C@H](C)CO)/C=C\CCCCCC#N [Compound 16a, (S,5Z,8Z,11Z,14Z)-20-Cyano-N-((R)-1-hydroxypropan-2-yl)-13-methylicosa-5,8,11,14-tetraenamide]
Ki [9]: 1.4 nM
increase in binding affinity for CB1 compared to lead AMG315 [9]: 2–7 fold
Ki [10]: 2.2 nM
higher affinity for CB2 than the lead compound AMG315 [10]: 52–80 fold

C[C@H](/C=C\C/C=C\C/C=C\CCCC(=O)N[C@H](C)CO)/C=C\CCCCCO[N+](=O)[O-] [Compound 16b, (S,6Z,9Z,12Z,15Z)-20-(((R)-1-Hydroxypropan-2-yl)amino)-8-methyl-20-oxoicosa-6,9,12,15-tetraen-1-yl Nitrate]
Ki [9]: 1.7 nM
increase in binding affinity for CB1 compared to lead AMG315 [9]: 2–7 fold
Ki [10]: 10.9 nM

C[C@H](/C=C\C/C=C\C/C=C\CCCC(=O)N[C@H](C)CO)/C=C\CCCCCO [Compound 18, (S,5Z,8Z,11Z,14Z)-20-Hydroxy-N-((R)-1-hydroxypropan-2-yl)-13-methylicosa-5,8,11,14-tetraenamide]
Ki ([9]; read-out: rCB1 receptor Ki, rat brain membranes, [3H]CP-55,940, (± 95% CI)): 29 nM

C[C@H](/C=C\C/C=C\C/C=C\CCCC(=O)N[C@H](C)CO)/C=C\CCCCCF [Compound 21, (S,5Z,8Z,11Z,14Z)-20-Fluoro-N-((R)-1-hydroxypropan-2-yl)-13-methylicosa-5,8,11,14-tetraenamide]
Ki [9]: 4.2 nM
increase in binding affinity for CB1 compared to lead AMG315 [9]: 2–7 fold
Ki [10]: 22.2 nM
